The text below walks through data of patent US4652575A, “2-(ethylene-thio methyl furanyl)amino thiazole derivatives having acid secretion inhibiting activity” (Medosan Industrie Biochimiche Riunite S.p.A., priority 1984, dated 1987).

One series concerns gastric acid secretion. The note with it: experimental tests on animals and humans; prior art; cited from earlier work.
Another series deals with gastric secretion. The series is described as follows: Activity on gastric secretion "in vivo" (volume and total acidity of gastric juice after pylorus tieing, Shay). On the set-up: species or system male Wistar rats. The note with it: for ED50 / change in vivo at 20 mg/kg: Rattus norvegicus, po; for ED50: read-out: DE50 in rat calculated on total acidity (mEq/4 hours); for Total acidity gastric juice secretion / Volume gastric juice secretion / change in vivo at 20 mg/kg: 20 mg/kg oral. As for the experimental part:
(§1) The preparations were a solution of the substances in 2.5% citric acid for the "in vitro" test and 5% citric acid for the "in vivo" test respectively. Citric acid was diluted in normal physiologic saline at neutral pH.
The ability of the compounds according to the present invention to inhibit the gastric secretion was studied "in vivo" both by evaluating the volume reduction of gastric juice, and by measuring the total acidity of same after administration of the substances under test according to the Takeda method (see the aforementioned literature).
To this end, tests have been made on male Wistar rats of an average weight of 200 g. The animals, 10 for each substance, were placed into individual cages provided with ground grating in order to avoid coprophagy, without food but with free access to water for 24 hours before test. […] Four hours later the animals were sacrificed and the gastric juice was collected, of which the volume expressed in ml and the total acidity expressed in mEq was measured. The gastric juice ([…] ) was titrated with 0.1N NaOH to pH 7 to determine the acid concentration. The total acidity was then calculated as the product of the total volume of gastric juice by the acid concentration.

Series [1] addresses T1, histamine H2 receptors (Cavia porcellus, UniProt P47747).
T1 construct: tests on insulated atrium auricolas of Guinea pig heart; from tissue; host or cells: isolated guinea pig heart atrium
Description: Antagonistic activity to the histamine H2 receptors "in vitro" on insulated atrium auricolas of Guinea pig heart. The note with it: for inhibition at 10 µM / inhibition at 1 µM / inhibition at 0.1 µM: guinea pig, 0.5 h, read-out: Antagonizing activity to histamine H2 receptors; for inhibition at 10 µM: compound 1·10^-5 M/L; for inhibition at 1 µM: compound 1·10^-6 M/L; for inhibition at 0.1 µM: compound 1·10^-7 M/L. As for the experimental part:
as §1
This activity was evaluated "in vitro" by carrying out tests on insulated atrium auricolas of Guinea pig heart. […] Metering was carried out by placing the preparation into a vessel containing a Ringer-Locke solution wherein pure oxygen was bubbling, at a temperature of 37° C. A response of the organ "in vitro" was first established at cumulative histamine doses of 2.5.10^-7, 5.10^-7, 10^-6, 5.10^-6, 10^-5 M/L. After obtaining two constant lines with histamine at a time interval of one hour from one another, the substances under test were added to the bath and after a 30 minutes contact with the preparation, a new histamine response line in the presence of the substance under test was drawn. The activity was tested at various concentrations of the new compounds (10^-5, 10^-6, 10^-7 and in one case 10^-8 M/L).

In series [2] the target is T1, histamine H2 receptors. The note with it: Daly M. J., Br. J. Pharmac., 72, 49, 1982; cited from earlier work.
The nature of another series: in vivo. The note with it: po. The source says:
The animals were kept under observation by checking mortality and possible pain signs for 15 days from start of test.

Each structure is given as a SMILES string. Like-named read-outs stand apart in the source and are kept apart here. A value given as a limit tells only on which side of the number the result lay.

T1 sequence (P47747 whole entry): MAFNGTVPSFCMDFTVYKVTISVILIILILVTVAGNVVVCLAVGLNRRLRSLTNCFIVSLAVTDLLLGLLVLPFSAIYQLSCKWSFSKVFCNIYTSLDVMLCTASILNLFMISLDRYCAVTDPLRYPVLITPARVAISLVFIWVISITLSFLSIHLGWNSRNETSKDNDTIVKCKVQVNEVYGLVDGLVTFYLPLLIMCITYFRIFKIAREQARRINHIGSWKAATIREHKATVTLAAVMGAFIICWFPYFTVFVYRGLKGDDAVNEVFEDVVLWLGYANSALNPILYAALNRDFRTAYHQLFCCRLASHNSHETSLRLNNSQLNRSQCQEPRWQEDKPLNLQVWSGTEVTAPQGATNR

As for `CNC(=S)NCCCCc1cnc[nH]1` [Burimamide], the “reduction of gastric acid secretion (in words)” value (“reduction” for short) with gastric acid secretion is given as “effective to reduce the gastric acid secretion”.
For `CN/C(=N/CCSCc1nc[nH]c1C)NC#N` [Cimetidine, reference compound], in the series on gastric secretion, the ED50 was 30 mg/kg. The inhibition at 10 µM worked out at 28% on histamine H2 receptors [1] (histamine 1·10^-5 M/L); 100% on histamine H2 receptors [1] (histamine 1·10^-6 M/L); 100% on histamine H2 receptors [1] (histamine 2,5·10^-7 M/L); 50% at histamine H2 receptors [1] (histamine 5·10^-6 M/L); 100% on histamine H2 receptors [1] (histamine 5·10^-7 M/L). Moreover, the inhibition at 1 µM was found to be 10% on histamine H2 receptors [1] (histamine 1·10^-5 M/L); 90% at histamine H2 receptors [1] (histamine 1·10^-6 M/L); 100% at histamine H2 receptors [1] (histamine 2,5·10^-7 M/L); 40% on histamine H2 receptors [1] (histamine 5·10^-6 M/L); 90% on histamine H2 receptors [1] (histamine 5·10^-7 M/L). The inhibition at 0.1 µM on histamine H2 receptors [1] (histamine 1·10^-5 M/L) is 0%; on histamine H2 receptors [1] (histamine 1·10^-6 M/L) it was 45%; at histamine H2 receptors [1] (histamine 2,5·10^-7 M/L), 80%; at histamine H2 receptors [1] (histamine 5·10^-6 M/L), 22%; on histamine H2 receptors [1] (histamine 5·10^-7 M/L) it was 80%. For the same molecule, on histamine H2 receptors [2], the “antagonism of histamine induced increase of contraction frequency of the insulated atrium (in words)” value is reported as “competitively antagonize”. Moreover, the “reduction” value with gastric acid secretion was “effective to reduce the gastric acid secretion”.
Take `CN(C)Cc1ccc(CSCCNc2nc(-c3ccc(Oc4ccccc4)cc3)cs2)o1` [Example No. 13, 2-(2-(((5-(dimethylamino)methyl-2-furanyl)methyl)thio)ethyl)amino-4-(4-phenoxy)phenyl-thiazole]: the “Total acidity gastric juice secretion” value in the series with gastric secretion (6 hours before pilorus tieing) is recorded as 0,09 mEq/4 hours; in the series on gastric secretion (12 hours before pilorus tieing) it was 0,09 mEq/4 hours; with gastric secretion (24 hours before pilorus tieing), 0,13 mEq/4 hours; with gastric secretion (36 hours before pilorus tieing), 0,15 mEq/4 hours. Moreover, the “Volume gastric juice secretion” value is given as 3,9 ml/4 hours with gastric secretion (6 hours before pilorus tieing), 3,9 ml/4 hours in the series on gastric secretion (12 hours before pilorus tieing), 4,7 ml/4 hours with gastric secretion (24 hours before pilorus tieing) and 5,1 ml/4 hours with gastric secretion (36 hours before pilorus tieing). In addition, the change in vivo at 20 mg/kg is -47% in the series with gastric secretion (6 hours before pilorus tieing, read-out: Total acidity gastric juice secretion, Variation %); -26% with gastric secretion (6 hours before pilorus tieing, read-out: Volume gastric juice secretion, Variation %); -40% in the series with gastric secretion (12 hours before pilorus tieing, read-out: Total acidity gastric juice secretion, Variation %); -23% with gastric secretion (12 hours before pilorus tieing, read-out: Volume gastric juice secretion, Variation %); -23% with gastric secretion (24 hours before pilorus tieing, read-out: Total acidity gastric juice secretion, Variation %); -16% in the series on gastric secretion (24 hours before pilorus tieing, read-out: Volume gastric juice secretion, Variation %). In addition, the change in vivo at 20 mg/kg was -6% in the series on gastric secretion (36 hours before pilorus tieing, read-out: Total acidity gastric juice secretion, Variation %) and -9% with gastric secretion (36 hours before pilorus tieing, read-out: Volume gastric juice secretion, Variation %). In addition, the ED50 in the series with gastric secretion (per os, 1 hour before pilorus tieing) was 2.6 mg/kg. The “ability to reduce the gastric acid secretion (in words)” value with gastric secretion (volume and total acidity of gastric juice) is reported as “interesting ability”. In addition, the inhibition at 10 µM on histamine H2 receptors [1] (histamine 1·10^-5 M/L) amounted to 90%; at histamine H2 receptors [1] (histamine 1·10^-6 M/L), 95%; on histamine H2 receptors [1] (histamine 2,5·10^-7 M/L), 100%; on histamine H2 receptors [1] (histamine 5·10^-6 M/L), 90%; at histamine H2 receptors [1] (histamine 5·10^-7 M/L) it was 100%. The inhibition at 1 µM at histamine H2 receptors [1] (histamine 1·10^-5 M/L) amounted to 38%; on histamine H2 receptors [1] (histamine 1·10^-6 M/L) it was 80%; on histamine H2 receptors [1] (histamine 2,5·10^-7 M/L), 90%; at histamine H2 receptors [1] (histamine 5·10^-6 M/L) it was 65%; at histamine H2 receptors [1] (histamine 5·10^-7 M/L) it was 90%. Also, the inhibition at 0.1 µM at histamine H2 receptors [1] (histamine 1·10^-5 M/L) is 40%; at histamine H2 receptors [1] (histamine 1·10^-6 M/L) it was 50%; on histamine H2 receptors [1] (histamine 2,5·10^-7 M/L), 90%; at histamine H2 receptors [1] (histamine 5·10^-6 M/L) it was 30%; at histamine H2 receptors [1] (histamine 5·10^-7 M/L), 70%. Moreover, the “antagonistic action to the histamine H2 receptors (in words)” value on histamine H2 receptors [1] (in vitro) is “interesting ability”. The median lethal dose (LD50) at 360 h in “in vivo” (mouse) was found to be 3000 mg/kg. The LD50 in “in vivo” (rat) is > 3000 mg/kg.
On to `C/N=C(\S)NCCSCc1[nH]cnc1C` [Metiamide], for which the “reduction” value with gastric acid secretion was “effective to reduce the gastric acid secretion”.

What is called LD50 is the dose expected to kill half of the subjects tested. A lower LD50 goes with a more toxic substance.
